# Data reported in PubChem BioAssay (NCI).
#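 The compound was tested at five concentrations on cells cultured in 96-well plates, with a 48-hour exposure period. TGI denotes the concentration required for complete inhibition of growth.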
# How the values were obtained:
# Test in all cases: inhibition of tumour cell growth, NCI panel, 48 h
# A498 renal = tested on: A498 renal
# LOX IMVI melanoma = tested on: LOX IMVI melanoma
# NCI-H522 lung = tested on: NCI-H522 lung
# NCI/ADR-RES ovarian = tested on: NCI/ADR-RES ovarian
# RPMI-8226 leukemia = tested on: RPMI-8226 leukemia
# RXF 393 renal = tested on: RXF 393 renal
# SF-268 CNS = tested on: SF-268 CNS
# SK-MEL-5 melanoma = tested on: SK-MEL-5 melanoma
# SN12C renal = tested on: SN12C renal
# T-47D breast = tested on: T-47D breast
Compound,TGI (A498 renal),TGI (LOX IMVI melanoma),TGI (NCI-H522 lung),TGI (NCI/ADR-RES ovarian),TGI (RPMI-8226 leukemia),TGI (RXF 393 renal),TGI (SF-268 CNS),TGI (SK-MEL-5 melanoma),TGI (SN12C renal),TGI (T-47D breast)
C=CCn1c(=O)c2ccccc2[n+]2c(-c3cccc([N+](=O)[O-])c3)csc12,> 100 µM,> 100 µM,> 100 µM,68.2 µM,> 100 µM,> 100 µM,> 100 µM,36.5 µM,> 100 µM,72.8 µM
Cc1cccc2c1C(=O)[C@@](C)([C@]1(C)Nc3cccc(C)c3C1=O)N2,> 100 µM,> 100 µM,> 100 µM,> 100 µM,> 100 µM,> 100 µM,> 100 µM,> 100 µM,> 100 µM,> 100 µM
Cc1nnc2sc(-c3ccc([N+](=O)[O-])o3)nn12,> 100 µM,16.1 µM,14.3 µM,39 µM,34.7 µM,25.9 µM,27 µM,24.4 µM,29.5 µM,62.7 µM
COC1=CC(=O)c2c(cc(COP(=O)(N(C)CCBr)N(C)CCBr)n2C)C1=O,6.12 µM,3.31 µM,2.15 µM,16.7 µM,4.11 µM,1.95 µM,> 38.2 µM,2.33 µM,3.76 µM,33 µM
Cc1ccc2c(=O)c(C(=O)N(CCO)CCO)c[nH]c2n1,> 100 µM,> 100 µM,> 100 µM,> 100 µM,> 100 µM,> 100 µM,> 100 µM,> 100 µM,> 100 µM,> 100 µM
Nc1ccc(-c2nc3ccccc3s2)cc1,65 µM,33 µM,40.1 µM,56.4 µM,61.1 µM,33.5 µM,31.4 µM,50.1 µM,43.5 µM,65.5 µM
Cc1nn(-c2ccccn2)c2c1C(SC#N)=C(C=O)CC2,5.57 µM,29.1 µM,46 µM,45.5 µM,63 µM,17.6 µM,33 µM,28.2 µM,40.3 µM,20.3 µM
COc1ccc(C2=NNC(=O)c3ccccc3N2c2nc(-c3cccs3)nc3ccc(Br)cc23)cc1,> 100 µM,> 100 µM,> 100 µM,62.4 µM,> 100 µM,> 100 µM,> 100 µM,> 100 µM,> 100 µM,> 100 µM
OC(O)(C(F)(F)F)C(F)(F)F,> 100 µM,> 100 µM,> 100 µM,> 100 µM,> 100 µM,> 100 µM,> 100 µM,> 100 µM,> 100 µM,> 100 µM
COC(=O)C[C@H](CCSC)NC(=O)C[C@H](CCSC)NC(=O)C[C@H](CCSC)NC(=O)OC(C)(C)C,46.4 µM,> 100 µM,> 100 µM,> 100 µM,> 100 µM,33.6 µM,59.2 µM,> 100 µM,> 100 µM,> 100 µM
CSc1ccccc1P(CCP(c1ccccc1SC)c1ccccc1SC)c1ccccc1SC,> 81.7 µM,> 100 µM,> 100 µM,> 100 µM,> 88.1 µM,> 84.9 µM,> 100 µM,> 70.1 µM,> 100 µM,> 100 µM
COc1ccc(C2NC(=O)Nc3c2c(=O)oc2c3ccc3ccccc32)cc1 (stereo unspecified),> 100 µM,> 100 µM,> 100 µM,> 100 µM,> 100 µM,> 100 µM,> 100 µM,> 100 µM,> 100 µM,> 100 µM
COc1cc2c(cc1O)CC[C@@H]1C2CC[C@@]2(C)C1CC[C@@H]2O (stereo partly specified),50.4 µM,> 100 µM,6.87 µM,2.73 µM,13.5 µM,57.6 µM,> 100 µM,36.7 µM,> 82 µM,> 100 µM
C/C(=C\c1ccccc1)C(=O)NCc1ccc(C(=O)NCCc2c[nH]c3ccccc23)cc1,> 100 µM,> 100 µM,> 100 µM,> 100 µM,> 100 µM,> 100 µM,> 100 µM,> 100 µM,> 100 µM,> 100 µM
c1ccc2c(c1)c1c3n2-c2cc(on2)C3CCC1 (stereo unspecified),> 100 µM,> 100 µM,> 100 µM,> 100 µM,> 100 µM,> 100 µM,> 100 µM,> 100 µM,> 100 µM,> 100 µM
CCOC(=O)CCC(C(=O)OCC)n1nnc2cc(Nc3c(C)[n+]([O-])c4ccc(Cl)cc4[n+]3[O-])ccc21 (stereo unspecified),> 100 µM,> 100 µM,> 100 µM,> 100 µM,> 100 µM,> 100 µM,> 100 µM,> 100 µM,> 100 µM,> 100 µM
COc1cccc(C2CC(=O)c3cccn32)c1 (stereo unspecified),> 100 µM,> 100 µM,> 100 µM,> 100 µM,> 100 µM,> 100 µM,> 100 µM,,> 100 µM,> 100 µM

Compound,TGI (A498 renal),TGI (LOX IMVI melanoma),TGI (NCI-H522 lung),TGI (NCI/ADR-RES ovarian),TGI (RPMI-8226 leukemia),TGI (RXF 393 renal),TGI (SF-268 CNS),TGI (SK-MEL-5 melanoma),TGI (SN12C renal),TGI (T-47D breast)
S=C(Nc1ccc2c(c1)Cc1ccccc1-2)Nc1ccc2c(c1)Cc1ccccc1-2,> 100 µM,> 100 µM,> 100 µM,> 100 µM,> 100 µM,> 100 µM,> 100 µM,> 100 µM,> 100 µM,> 100 µM
N#Cc1c(C#N)c(-c2ccccc2)n(/N=C\c2ccccc2)c1N,77.4 µM,32.8 µM,49.5 µM,52.5 µM,40.1 µM,70.5 µM,> 100 µM,32.8 µM,> 100 µM,29.1 µM
O=C(O)CCCc1ccc2c(c1)CC1(C2)Cc2ccc(CCCC(=O)O)cc2C1,> 100 µM,> 100 µM,> 100 µM,> 100 µM,> 100 µM,> 100 µM,,> 100 µM,> 100 µM,> 100 µM
C=C(C(=O)OC)[C@H]1CC/C(C)=C/CC/C(C)=C/CC[C@@]2(C)O[C@@H]2C1,62.2 µM,28.8 µM,38.5 µM,52.1 µM,32.8 µM,28.8 µM,,22 µM,31.2 µM,44.7 µM
C=C1C(=O)O[C@H]2C3C(=C(C)CC[C@@H]12)C(=O)[C@@H]1OC31C (stereo partly specified),23.7 µM,5.79 µM,2.91 µM,10.7 µM,3.62 µM,2.99 µM,12.6 µM,6.11 µM,3.18 µM,3.96 µM
CCCCCCCCCCCCCCCCNc1ccn(C2CC(OP(=O)(O)OCC3OC(n4cc(CC)c(=O)[nH]c4=O)CC3O)C(CO)O2)c(=O)n1 (stereo unspecified),> 100 µM,> 100 µM,> 100 µM,84.9 µM,38.8 µM,46.4 µM,33.5 µM,,> 100 µM,> 100 µM
CC1(C)CC2(C)OC(=N)C1(C#N)C2(C#N)C#N (stereo unspecified),28.7 µM,3.09 µM,8.38 µM,29.5 µM,23.7 µM,27.2 µM,33.8 µM,21 µM,21.7 µM,37.7 µM
O=C(NCc1cccnc1)C(=O)NCc1cccnc1,> 100 µM,> 100 µM,> 100 µM,> 100 µM,> 100 µM,> 100 µM,> 100 µM,> 100 µM,> 100 µM,> 100 µM
O=C(NC/C=C/Br)NC1CCNc2ccccc21 (stereo unspecified),70.4 µM,56.8 µM,> 100 µM,99.7 µM,58.7 µM,> 100 µM,> 100 µM,37.7 µM,> 100 µM,93.9 µM
O=c1/c(=C/c2ccc(-c3ccc(Cl)cc3Cl)o2)sc2n1[C@@H](c1ccc3c(c1)OCO3)C=C(c1cc(F)c(Cl)cc1Cl)N=2,6 µM,> 100 µM,> 100 µM,> 100 µM,88 µM,> 100 µM,> 100 µM,> 100 µM,> 100 µM,> 100 µM
CCCCCCCCC[n+]1cccc(C2C(C(=O)OCC)=C(C)NC(C)=C2C(=O)OCC)c1,38.6 µM,9.34 µM,9.8 µM,> 100 µM,5.28 µM,5.94 µM,16.9 µM,3.8 µM,17.5 µM,20.3 µM
CCOC(=O)c1cc(-c2ccn(C(C)=O)c2)c(-c2cc(C)co2)[nH]1,> 100 µM,> 100 µM,> 100 µM,> 100 µM,> 100 µM,> 100 µM,> 100 µM,> 100 µM,> 100 µM,> 100 µM
COC(=O)C1=C(C)NC2(C)OC(C)(O)C(C(C)=O)C12C(C)=O (stereo unspecified),> 100 µM,> 100 µM,> 100 µM,> 100 µM,> 100 µM,> 100 µM,> 100 µM,> 100 µM,> 100 µM,> 100 µM
COC(=O)/C=C\C(C#N)(C#N)N=Cc1ccsc1,35.3 µM,5.71 µM,1.99 µM,> 19.7 µM,3.28 µM,3.72 µM,46.2 µM,15.5 µM,9.73 µM,4.17 µM
COC(=O)C1[C@H](C(=O)OC)C1(Br)CBr (stereo partly specified),> 100 µM,> 100 µM,> 100 µM,> 100 µM,> 100 µM,> 100 µM,> 100 µM,> 100 µM,> 100 µM,> 100 µM
CC1(O)C(=O)OC2CC([C@]3(O)CCC4[C@@H]5C[C@H]6O[C@]67[C@@H](O)C=CC(=O)[C@]7(C)C5CC[C@@]43C)C1(C)C2 (stereo partly specified),> 100 µM,15.7 µM,4.85 µM,> 100 µM,19.7 µM,13.2 µM,> 92 µM,45.3 µM,63.4 µM,18.5 µM
